We go through six molecules from patent publication US20160244486A1, “AB Modulating Peptides” (ALZHYME PTY LTD, priority 2013, published 2016).

Series [1] in a line: In vitro peptide stability in 10% rat brain homogenate, RP-HPLC quantification. The settings on record: 37° C. Type of series: in vitro ADME. The method, then: Peptides were prepared as a 1 mM solution in phosphate-buffered saline. 20 μl of the peptide solution was diluted in 10% rat brain homogenate (in 1× phosphate-buffered saline and 0.5% Triton X-100).
The solution was incubated at 37° C. for different times, and the reaction was stopped by adding the Complete mixture of protease inhibitors (Roche Molecular Biochemicals, Mannheim, Germany). For ANA5 and RI-ANA5, the bulk of the brain proteins (but not the peptides) were precipitated in cold methanol (1:4 (v/v) mixture/MeOH) for 1 hr at −20° C. The precipitated proteins were pelleted by centrifugation at 10,000 g for 10 min at 4° C. The supernatant containing the peptide was concentrated five times under vacuum and separated by RP-HPLC. Due to recovery issues with the longer ANA1 and RI-ANA1 peptides, samples were instead lyophilized and then reconstituted in a TFA solution, prior to separation by RP-HPLC.
The area of the peak (UV absorbance at 205 nm) corresponding to the intact peptide was measured and compared with an equivalent sample incubated in phosphate-buffered saline.
(iii) In vitro assay of peptide stability—Peptides were prepared as a 1 mM solution in PBS. 20 μl of the peptide solution was diluted in 10% rat brain homogenate (in PBS+0.5% Triton X-100). The solution was incubated at 37° C. for different times, and the reaction was stopped by adding the Complete mixture of protease inhibitors (Roche Molecular Biochemicals, Mannheim, Germany). For ANA5 and 9M S.A., the bulk of the brain proteins (but not the peptides) were precipitated in cold methanol (1:4 (v/v) mixture/methanol) for 1 h at −20° C. The precipitated proteins were pelleted by centrifugation (10.000 g, 10 min, 4° C.). The supernatant containing the peptide was concentrated five times under vacuum and separated by reversed-phase HPLC (RP-HPLC). Due to recovery issues with the longer ANA1 and RI-ANA1 peptides, samples were instead lyophilized, extracted in TFA, centrifuged to remove insoluble material and separated by RP-HPLC. The area of the peak (UV absorbance at 205 nm) corresponding to the intact peptide was measured and compared with an equivalent sample incubated in PBS.
Peptides were prepared as 1 mM solutions in PBS and diluted in 10% rat brain homogenate. Solutions were incubated at 37° C. for different times, and the reactions were stopped by addition of protease inhibitors. Samples were processed as described herein in the General Materials/Methods, separated by RP-HPLC and the level of intact peptide was determined at each time point.

The target in series [2] is oligomeric Aβ42 (human synthetic Aβ42, pre-formed oligomers) (human) (UniProt P05067). The experiment in a line: SPR (Biacore 3000), 15M S.A. immobilised on CM5, oAβ42 injected; 1:1 binding model with drifting baseline; overall estimate across the oligomer mixture.
Chain of UniProt P05067 (P05067 672-713 limits assumed): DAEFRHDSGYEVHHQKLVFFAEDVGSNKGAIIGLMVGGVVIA
The next series relates to amyloid plaques. The experiment in a line: Ex vivo staining of amyloid plaques in brain tissue sections. The settings on record: brain tissue from 8 month old 5× FAD AD model mice. The method, then: (x) Immunohistochemistry—Brains were obtained from 8 month old 5× FAD AD model mice Oakley, F-F et al (2006) or age-matched non-transgenic controls and post-fixed and embedded in the freezing medium as described in Drummond, E. S. et al (2013). Serial sagittal cryosections were cut at a thickness of 10 μm. Positive control staining for amyloid was performed using Thioflavin S (ThioS) as described in Youmans, K. L, et al (2012). After the removal of the freezing medium by serial changes of TBS pH 7.4, the slide was incubated for 1 h at room temperature in blocking buffer (10% goat serum in TBS). The slides were then stained with 1 μM TMR-labelled 15M S.A. peptide in 2% goat-serum-PBS for 2 hours at room temperature. Excess unbound peptide was removed prior to mounting by extensive washing with TBS. The coverslip was mounted using Prolong Gold mounting media (Life Technologies).
We investigated whether TMR-labelled 15M S.A. could be used to stain amyloid plaques ex vivo using brain tissue sections from AD model mice, in comparison with Thioflavin S (Thio S), which binds mature amyloid deposits and readily detects these plaques.

Square brackets hold non-standard residues; d marks the D form. Ends that are not written are not given here. Peptide text beside a SMILES is read from it. ξ: configuration not given here. ξT = CC(O)C(N)C(=O)O

As for `CSCC[C@@H](NC(=O)[C@@H](CC(C)C)NC(=O)[C@@H](CCCCN)NC(=O)[C@H](N)CCCNC(=N)N)C(=O)N[C@H](CCC(N)=O)C(=O)N1CCC[C@@H]1C(=O)NC(C(=O)N[C@H](CCCNC(=N)N)C(=O)N[C@H](CC(N)=O)C(=O)N[C@H](CCCNC(=N)N)C(=O)N[C@H](CCCNC(=N)N)C(=O)N[C@H](CC(N)=O)C(=O)N1CCC[C@@H]1C(=O)N[C@H](CC(N)=O)C(=O)NC(C(=O)O)C(C)O)C(C)O` (stereo partly drawn) [RI-ANA1, Arg-Lys-Leu-Met-Gln-Pro-Thr-Arg-Asn-Arg-Arg-Asn-Pro-Asn-Thr] (H-[dR][dK][dL][dM][dQ][dP][ξT][dR][dN][dR][dR][dN][dP][dN][ξT]-OH; N-terminus and C-terminus assumed), the intact peptide amount worked out at 29.8 µg in series [1] (time 0 min); 29.80 µg in series [1] (time 0 min, listed as 15M S.A.); 27.8 µg in series [1] (time 15 min); 27.80 µg in series [1] (time 15 min, listed as 15M S.A.); 29.4 µg in series [1] (time 30 min); 29.40 µg in series [1] (time 30 min, listed as 15M S.A.). Moreover, the intact peptide amount in series [1] (time 300 min) worked out at 33.5 µg; in series [1] (time 300 min, listed as 15M S.A.) it was 33.50 µg.
Turning to `CSCC[C@@H](NC(=O)[C@@H](CC(C)C)NC(=O)[C@@H](CCCCN)NC(=O)[C@H](N)CCCNC(=N)N)C(=O)N[C@H](CCC(N)=O)C(=O)N1CCC[C@@H]1C(=O)N[C@@H](C(=O)N[C@H](CCCNC(=N)N)C(=O)N[C@H](CC(N)=O)C(=O)O)[C@H](C)O` [RI-ANA5, Arg-Lys-Leu-Met-Gln-Pro-Thr-Arg-Asn], the intact peptide amount in series [1] (time 0 min) turned out to be 14 µg; in series [1] (time 0 min, listed as 9M S.A.) it was 14.11 µg; in series [1] (time 15 min), 12.35 µg; in series [1] (time 30 min), 12.35 µg; in series [1] (time 300 min) it was 12.5 µg; in series [1] (time 300 min, listed as 9M S.A.), 12.51 µg.
For “NRTPQMLKR [ANA5, Asn-Arg-Thr-Pro-Gln-Met-Leu-Lys-Arg]”, the intact peptide amount was 12 µg in series [1] (time 0 min); 12.00 µg in series [1] (time 0 min, listed as 9mer); 0.47 µg in series [1] (time 15 min); 0 µg in series [1] (time 30 min); “none” in series [1] (time 30 min, listed as 9 mer); 0 µg in series [1] (time 30 min, listed as 9mer). Also, in series [1] (time 300 min), the intact peptide amount came to 0 µg.
Take “RI-ANA1 (Arg-Lys-Leu-Met-Gln-Pro-Thr-Arg-Asn-Arg-Arg-Asn-Pro-Asn-Thr, all D-amino acids) (peptide)”: the Kd in series [2] is 11 µM.
“TNPNRRNRTPQMLKR [ANA1, Thr-Asn-Pro-Asn-Arg-Arg-Asn-Arg-Thr-Pro-Gln-Met-Leu-Lys-Arg]”: the intact peptide amount in series [1] (time 0 min) is 25.8 µg; in series [1] (time 0 min, listed as 15mer), 25.78 µg; in series [1] (time 15 min) it was 5.6 µg; in series [1] (time 15 min, listed as 15mer), 5.55 µg; in series [1] (time 30 min) it was 0.03 µg; in series [1] (time 30 min, listed as 15 mer) it was “trace amounts”. In addition, the intact peptide amount in series [1] (time 30 min, listed as 15mer) worked out at 0.03 µg; in series [1] (time 300 min) it was 0.02 µg.
Regarding Thioflavin S [Thio S], the “staining of amyloid deposits” value in the series with amyloid plaques is listed as “extensive plaques”.

What is called Kd is a measure of binding affinity in units of concentration.
